Patent US20230399312A1, “SUBSTITUTED PYRIMIDINES AND METHODS OF USE” (THERAVANCE BIOPHARMA R&D IP, LLC, priority 2020, published 2023)
pKi: −log10 of the molar value.

Assays:
[1] = target: T1, recombinant human ALK5 (TGF-βR1) protein (Homo sapiens, UniProt P36897); test: Biochemical ALK5 (TGF-βR1) assay to measure pKi (LANCE Ultra ULight kinase assay); details: apparent pKi, converted from pIC50 by Cheng-Prusoff
T1 construct: purchased Life Technologies PR9075A
T1 sequence (P36897 34-503): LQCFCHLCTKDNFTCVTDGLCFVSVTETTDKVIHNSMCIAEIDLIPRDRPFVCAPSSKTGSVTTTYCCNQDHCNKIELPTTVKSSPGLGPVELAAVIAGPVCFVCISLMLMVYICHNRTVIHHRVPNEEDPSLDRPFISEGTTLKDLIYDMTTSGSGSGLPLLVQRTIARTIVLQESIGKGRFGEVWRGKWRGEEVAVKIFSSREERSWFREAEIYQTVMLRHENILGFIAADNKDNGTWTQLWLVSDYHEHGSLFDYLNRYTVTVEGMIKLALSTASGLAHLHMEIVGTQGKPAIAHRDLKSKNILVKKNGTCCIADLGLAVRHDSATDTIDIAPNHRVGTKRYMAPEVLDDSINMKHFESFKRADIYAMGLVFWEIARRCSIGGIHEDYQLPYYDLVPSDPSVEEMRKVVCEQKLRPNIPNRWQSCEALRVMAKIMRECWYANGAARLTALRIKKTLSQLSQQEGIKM
Procedure: The assays were performed in a 384-well plate (24 columns×16 wells/rows). An Echo®550 Liquid Handler (Labcyte) was used to prepare various intermediate concentrations of compounds of the present disclosure in 100% DMSO. From the intermediate concentrations, a range of concentrations (from […] to 25 μM corresponding to volumes up to 105 nL) were prepared and ejected into a final assay plate to be used to create individual dose response curves for each of the subject compounds. To a separate column within the assay plate, 105 nL of DMSO in each well was used to establish a maximum assay signal. Additionally, 105 nL of 100 μM SD-208, a selective TGF-βR1 inhibitor (Catalog #S7624, Selleck Chemicals), was used in another column of wells to establish a minimal assay signal.
With a multidrop dispenser, 8 μL of enzyme mixture (1.25× final) was added to each well. […] The plate was then sealed with an adhesive seal and allowed to equilibrate for 60 minutes at room temperature.
Next, 2 μL of 125 μM ATP (5×final, 125 μM ATP prepared in assay buffer with 2 mM DTT) was added to the incubated mixtures, covered with a MicroClime® Environmental Lid (Product No. LLS-0310, Labcyte) and immediately transferred to 37° C. The reactions were allowed to proceed at 37° C. for 60 minutes before terminating with the addition of 10 μL of detection antibody (LANCE® (lanthanide chelate excite) Ultra Europium-anti-phospo-DNA Topoisomerase 2-alpha (Thr1342)) in detection mixture (12 mM EDTA, 4 nM detection antibody prepared in detection buffer (50 mM Tris-HCl, 150 mM NaCl, 0.5% BSA (Fraction V), pH 7.0)) at room temperature. The plate was then read on a Perkin Elmer EnVision Plate Reader using europium specific reader settings with excitation and emission wavelengths set to 320 or 340 nm and 665 nm, respectively.
For dose-response analyses, percent inhibition versus compound concentrations were plotted, and pIC50 values were determined from a 4-parameter robust fit model with GraphPad Prism V5 Software (GraphPad Software, Inc., La Jolla, CA). This model obtains pIC50 values by fitting the sigmoidal dose-response (variable slope) equation to the data. Results were expressed as pIC50 (negative logarithm of IC50) and subsequently converted to pKi (negative logarithm of dissociate constant, Ki) using the Cheng-Prusoff equation. The higher the value of pKi (lower value of Ki), the greater the inhibition of ALK5 activity.

[2] = system: TGF-β-stimulated SMAD3 phosphorylation in BEAS-2B cells; test: Cellular ALK5 potency assay, inhibition of TGF-β stimulated pSMAD3 formation in BEAS-2B cells; assay type: cell-based; details: Homo sapiens, pSMAD3, TGF-β 10 ng/mL, read-out: BEAS2B pIC50 (converted)
Procedure: The potency of compounds of the present disclosure for inhibition of TGF-β-stimulated SMAD3 phosphorylation was measured in BEAS-2B cells, a human lung epithelial cell line. TGF-β signals through activin receptor-like kinase 5 (ALK5) immediately prior to SMAD3 phosphorylation.
BEAS-2B cells were grown using 50% DMEM (Life Technologies) and 50% F-12 (Life Technologies) media, supplemented with 10% Fetal Bovine Serum (ATCC), 25 mM HEPES (Life Technologies), and 1×Pen-Strep (Life Technologies). Cells were cultured in a humidified incubator set at 37° C., 5% CO2, and trypsonized using 0.25% Trypsin with 0.5% polyvinylpyrrolidone (PVP).
For the assay, BEAS-2B cells were seeded at 7,500 cells/well (25 μL/well) in a 384-well plate and cultured overnight. Before dosing, growth media was aspirated and the wells were rinsed with HBSS Buffer (HBSS with Calcium and Magnesium, Life Technologies) supplemented with 25 mM HEPES (Life Technologies) and 1% Bovine Serum Albumin (Roche). Compounds were serially diluted in DMSO, then further diluted with supplemented HBSS Buffer (50 μL/well) to create a compound plate 3× of the final assay concentration, at 0.3% DMSO. The diluted compounds were then added to the cells (8 μL/well) and incubated at 37° C., 5% CO2 for 1 hour. After the compound incubation, TGF-β (R&D Systems) reconstituted in supplemented HBSS Buffer was added to the cells ([…], final concentration 10 ng/mL) and incubated for a further 30 minutes, after which the cells were immediately lysed with AlphaLISA lysis buffer (PerkinElmer). AlphaLISA Acceptor and Detector beads (PerkinElmer) were added 2 hours apart, then incubated overnight to be read the next day. The potency of the compound was determined through analysis of dose-dependent quantified changes in pSMAD3 signal from baseline (non-compound treated TGF-β stimulated cells). Data are expressed as pIC50 (negative decadic logarithm IC50) values.

pKi [1] | SMILES | IC50 [2] [nM]
8.50 to 9.40 | COc1cc(Nc2nccc(Nc3ccnc(-c4cccc(C)n4)n3)n2)ccc1NS(C)(=O)=O [Compound 18, N-[2-methoxy-4-[[4-[[2-(6-methyl-2-pyridyl)pyrimidin-4-yl]amino]pyrimidin-2-yl]amino]phenyl] methanesulfonamide] | 25.1 to 158
7.50 to 8.40 | Fc1cc(F)c(-c2nccc(Nc3ccnc(Nc4ccc(N5CCOCC5)cc4)n3)n2)cc1Cl [Compound 19, N4-[2-(5-chloro-2,4-difluoro-phenyl)pyrimidin-4-yl]-N2-(4-morpholinophenyl)pyrimidine-2,4-diamine] | 25.1 to 158
8.50 to 9.40 | COc1ncc(Nc2nccc(Nc3ccnc(-c4cccc(C)n4)n3)n2)cc1NS(C)(=O)=O [Compound 20, N-[2-methoxy-5-[[4-[[2-(6-methyl-2-pyridyl)pyrimidin-4-yl]amino]pyrimidin-2-yl]amino]-3-pyridyl]methanesulfonamide] | ≤ 20
9.50 to 10.40 | Cc1cccc(-c2nccc(Nc3ccnc(Nc4ccc(S(=O)(=O)N5CCNCC5)cc4)n3)n2)n1 [Compound 21, N4-[2-(6-methyl-2-pyridyl)pyrimidin-4-yl]-N2-(4-piperazin-1-ylsulfonylphenyl)pyrimidine-2,4-diamine] | 25.1 to 158
9.50 to 10.40 | Cc1cccc(-c2nccc(Nc3ccnc(Nc4ccc(CN5CC(C(=O)OC6CCNCC6)C5)cc4)n3)n2)n1 [Compound 22, 4-piperidyl 1-[[4-[[4-[[2-(6-methyl-2-pyridyl)pyrimidin-4-yl]amino]pyrimidin-2-yl]amino]phenyl]methyl] azetidine-3-carboxylate] | 25.1 to 158
9.50 to 10.40 | Cc1cccc(-c2nccc(Nc3ccnc(Nc4ccc(CN5CCN(Cc6ccccc6)CC5)cc4)n3)n2)n1 [Compound 23, N2-[4-[(4-benzylpiperazin-1-yl)methyl]phenyl]-N4-[2-(6-methyl-2-pyridyl)pyrimidin-4-yl]pyrimidine-2,4-diamine] | 25.1 to 158
≥ 10.50 | Cc1cccc(-c2nccc(Nc3ccnc(Nc4ccc(CN(C)C)cc4)n3)n2)n1 [Compound 24, N2-[4-[(dimethylamino)methyl]phenyl]-N4-[2-(6-methyl-2-pyridyl)pyrimidin-4-yl]pyrimidine-2,4-diamine] | 25.1 to 158
9.50 to 10.40 | COC(=O)C1CNCCN1Cc1ccc(Nc2nccc(Nc3ccnc(-c4cccc(C)n4)n3)n2)cc1 (centres unmarked) [Compound 25, methyl 1-[[4-[[4-[[2-(6-methyl-2-pyridyl)pyrimidin-4-yl]amino]pyrimidin-2-yl]amino]phenyl]methyl] piperazine-2-carboxylate] | 25.1 to 158
9.50 to 10.40 | Cc1cccc(-c2nccc(Nc3ccnc(Nc4ccc(N5CCN(Cc6ccccc6)CC5)cc4)n3)n2)n1 [Compound 27, N2-[4-(4-benzylpiperazin-1-yl)phenyl]-N4-[2-(6-methyl-2-pyridyl)pyrimidin-4-yl]pyrimidine-2,4-diamine] | 25.1 to 158
9.50 to 10.40 | COC(=O)C1CCN(Cc2ccc(Nc3nccc(Nc4ccnc(-c5cccc(C)n5)n4)n3)cc2)CC1 [Compound 28, methyl 1-[[4-[[4-[[2-(6-methyl-2-pyridyl)pyrimidin-4-yl]amino]pyrimidin-2-yl]amino]phenyl]methyl] piperidine-4-carboxylate] | ≤ 20
≥ 10.50 | Cc1cccc(-c2nccc(Nc3ccnc(Nc4ccc(CN5CCCC(C(=O)OC6CCN(C)C6)C5)cc4)n3)n2)n1 (centres unmarked) [Compound 29, (1-methylpyrrolidin-3-yl) 1-[[4-[[4-[[2-(6-methyl-2-pyridyl)pyrimidin-4-yl]amino]pyrimidin-2-yl]amino]phenyl]methyl] piperidine-3-carboxylate] | ≤ 20
7.50 to 8.40 | Cc1cccc(-c2nccc(Nc3ccnc(Nc4ncc(C(=O)N5CCNCC5)s4)n3)n2)n1 [Compound 30, [2-[[4-[[2-(6-methyl-2-pyridyl)pyrimidin-4-yl]amino]pyrimidin-2-yl]amino]thiazol-5-yl]-piperazin-1-yl-methanone] | 200 to 1260
9.50 to 10.40 | Cc1cccc(-c2nccc(Nc3ccnc(Nc4ccc(N5CCNCC5CC(=O)O)cc4)n3)n2)n1 (centres unmarked) [Compound 31, 2-[1-[4-[[4-[[2-(6-methyl-2-pyridyl)pyrimidin-4-yl]amino]pyrimidin-2-yl]amino]phenyl]piperazin-2-yl]acetic acid] | 200 to 1260
9.50 to 10.40 | Cc1cccc(-c2nccc(Nc3ccnc(Nc4ccc(CN5C[C@@H](C)NC[C@H]5C)cc4)n3)n2)n1 [Compound 32, N2-[4-[[(2R,5R)-2,5-dimethylpiperazin-1-yl]methyl]phenyl]-N4-[2-(6-methyl-2-pyridyl)pyrimidin-4-yl]pyrimidine-2,4-diamine] | 25.1 to 158
9.50 to 10.40 | Cc1cccc(-c2nccc(Nc3ccnc(Nc4ccc(C(=O)OCC5CNC5)cc4)n3)n2)n1 [Compound 33, azetidin-3-ylmethyl 4-((4-((2-(6-methylpyridin-2-yl)pyrimidin-4-yl)amino)pyrimidin-2-yl)amino)benzoate] | 25.1 to 158
7.50 to 8.40 | Fc1ccc(-c2nccc(Nc3ccnc(Nc4ccc(N5CCOCC5)cc4)n3)n2)c(F)c1 [Compound 35, N4-[2-(2,4-difluorophenyl)pyrimidin-4-yl]-N2-(4-morpholinophenyl) pyrimidine-2,4-diamine] | 25.1 to 158
8.50 to 9.40 | Cc1cccc(-c2nccc(Nc3ccnc(Nc4ccc(-c5cnn(CCO)c5)cc4)n3)n2)n1 [Compound 36, 2-[4-[4-[[4-[[2-(6-methyl-2-pyridyl)pyrimidin-4-yl]amino]pyrimidin-2-yl]amino]phenyl]pyrazol-1-yl]ethanol] | 25.1 to 158
9.50 to 10.40 | Cc1cccc(-c2nccc(Nc3ccnc(Nc4ccc(N5CCN(C(=O)CSC(CCO)C(=O)O)CC5)cc4)n3)n2)n1 (centres unmarked) [Compound 37, 4-hydroxy-2-[2-[4-[4-[[4-[[2-(6-methyl-2-pyridyl)pyrimidin-4-yl]amino]pyrimidin-2-yl]amino]phenyl]piperazin-1-yl]-2-oxo-ethyl]sulfanyl-butanoic acid] | 200 to 1260

SMILES | pKi [1] | IC50 [2] [nM]
Cc1cccc(-c2nccc(Nc3ccnc(Nc4ccc(N5C[C@H]6CC[C@@H](C5)N6)cc4)n3)n2)n1 [Compound 34, N4-[2-(6-methyl-2-pyridyl)pyrimidin-4-yl]-N2-[4-[rac-(1S,5R)-3,8-diazabicyclo[3.2.1]octan-3-yl]phenyl]pyrimidine-2,4-diamine] | 9.50 to 10.40 | 25.1 to 158
